Reference: patent US11866712B2, “System based on the reassembly of GFP for studying the trans-translational activity and identifying new antibiotics” (UNIVERSITE DE RENNES 1, priority 2018, dated 2024)
“Also recorded” adds a separate entry of the source.

Assays:
trans-translation = experiment: in vitro trans-translation assay (PURExpress kit, tmRNAGFP11, SmpB, sfGFP1-10 nonstop; GFP fluorescence); type: biochemical, Escherichia coli; settings: concentration of 10 μM; FIG. 3(B)
Description: (§1) In order to evaluate the tmRNA labeling activity in vitro, the present inventors used a reconstituted cell-free protein synthesis system (PURE for Protein Synthesis Using Recombinant Elements) (Shimizu et al., Nature Biotechnol., 2001, 19(8): 751-755). The experiments were carried out using the PURExpress® commercial kit (sold by New England Biolabs) containing all the purified components of Escherichia coli that are required to carry out both the transcription and the translation. In order to convert this kit into an in vitro fluorescent trans-translation system, the inventors added the components required for the trans-translation: tmRNAGFP11, the SmpB protein, and a non-stop DNA sequence encoding the first 10 domains of sfGFP (see Materials and Methods section).
Translation and trans-translation assays. The in vitro translation reactions were carried out according to the recommendations of New England Biolabs. The in vitro trans-translation assays were carried out in various steps using the PURExpress® protein synthesis kit (New England Biolabs). […]
Analysis by fluorescence. After overnight incubation at 37° C., the reaction volume was adjusted to 125 μL and transferred into a cuvette for analysis by fluorescence using an LS 55 fluorescence spectrometer (Perkin Elmer). The fluorescence intensity at 510 nm of the trans-translated sfalaGFP was determined using an excitation at 485 nm. […]

[1] = test system: transcription and translation; experiment: in vitro translation control: production of fluorescent sfalaGFP from PCR product in PURExpress kit; type: biochemical, Escherichia coli; settings: KKL-35 10 μM added to the sfalaGFP PCR product; FIG. 3(A)
Description: as §1
Translation and trans-translation assays. The in vitro translation reactions were carried out according to the recommendations of New England Biolabs. […]
Analysis by fluorescence. After overnight incubation at 37° C., the reaction volume was adjusted to 125 μL and transferred into a cuvette for analysis by fluorescence using an LS 55 fluorescence spectrometer (Perkin Elmer). The fluorescence intensity at 510 nm of the trans-translated sfalaGFP was determined using an excitation at 485 nm.
The inventors first of all confirmed that there was no fluorescence generated by the components of the PURExpress® kit (see FIG. 3). […]

translation = settings: known from Ramadoss et al., PNAS USA, 2013; cited from earlier work

O=C(Nc1nnc(-c2ccc(F)cc2)o1)c1ccc(Cl)cc1 [KKL-35]
activity against the trans-translation (trans-translation): slight activity | inhibition of transcription and of translation (anti-transcription and anti-translation activity) [1]: No inhibition; also recorded: absence | anti-translation activity (translation): strong
